Assay results as given in patent US20030215462A1, “Use of UGT inhibitors to increase bioavailability” (priority 2001, published 2003).

Experiments:
[1] = target: T1, UGT1A9 (Homo sapiens, UniProt O60656); assay: Inhibition of raloxifene glucuronidation by recombinant UGT1A9 Supersomes; conditions: for Inhibition of raloxifene glucuronidation, UGT1A9, first line per inhibitor (G1): first line (G1, metabolite not given); for Inhibition of raloxifene glucuronidation, UGT1A9, first line per inhibitor (G1) / Inhibition of raloxifene glucuronidation, UGT1A9, second line per inhibitor (G2): raloxifene 50 μM, 250 μg/ml Supersomes, 1 mM UDPGA, 15 min; for activity at 15 min, 2 μM / activity at 15 min, 5 µM / activity at 15 min, 10 µM / activity at 15 min, 25 µM / activity at 15 min, 50 µM: human, Supersomes with recombinant human UGT1A9, pH 7.5, probe raloxifene 50 μM; for Inhibition of raloxifene glucuronidation, UGT1A9, second line per inhibitor (G2): second line (G2, metabolite not given)
T1 sequence (O60656 26-530): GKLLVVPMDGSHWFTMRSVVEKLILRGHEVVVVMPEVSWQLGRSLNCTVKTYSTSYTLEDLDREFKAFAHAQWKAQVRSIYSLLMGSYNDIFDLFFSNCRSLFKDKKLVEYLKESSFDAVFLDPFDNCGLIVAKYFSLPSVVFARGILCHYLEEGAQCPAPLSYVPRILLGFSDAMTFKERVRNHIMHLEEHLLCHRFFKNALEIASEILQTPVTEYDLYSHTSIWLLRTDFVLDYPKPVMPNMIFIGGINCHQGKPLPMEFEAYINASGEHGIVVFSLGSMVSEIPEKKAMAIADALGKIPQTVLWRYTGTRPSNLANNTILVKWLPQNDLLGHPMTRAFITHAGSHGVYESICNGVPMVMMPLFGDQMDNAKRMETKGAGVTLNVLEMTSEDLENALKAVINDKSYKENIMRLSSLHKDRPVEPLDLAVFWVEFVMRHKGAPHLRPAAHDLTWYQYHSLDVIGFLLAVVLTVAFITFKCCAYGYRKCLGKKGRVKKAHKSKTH

[2] = system: T2, UGT enzymes of human liver microsomes; assay: Inhibition of 7-HFC glucuronidation in human liver microsomes; assay type: biochemical; conditions: for % of control metabolism (SD, n = 3), 7-HFC glucuronidation: 7-HFC 50 μM, human liver microsomes 100 μg/ml, 15 min
T2 construct: percentage of control metabolism, 7-HFC glucuronidation; percentage of control metabolism, 7-HFC glucuronidation

[3] = system: UGT enzymes of human liver microsomes; assay: Inhibition of raloxifene glucuronidation (G1, G2) in human liver microsomes; assay type: biochemical; conditions: G1, raloxifene 50 μM, human liver microsomes 250 μg/ml, 15 min
Text: Compounds were eluted using a binary solvent gradient system. […] Solvent B was methanol. […] Detection was at 280 nm.

CC/C(=C(/CC)c1ccc(O)cc1)c1ccc(O)cc1 [Diethylstilbestrol, reference compound]
Inhibition of raloxifene glucuronidation, UGT1A9, first line per inhibitor (G1) ([1]; inhibitor 2 μM): 90 (0) | Inhibition of raloxifene glucuronidation, UGT1A9, first line per inhibitor (G1) ([1]; inhibitor 5 μM): 86 (0) | Inhibition of raloxifene glucuronidation, UGT1A9, first line per inhibitor (G1) ([1]; inhibitor 10 μM): 78 (3) | Inhibition of raloxifene glucuronidation, UGT1A9, first line per inhibitor (G1) ([1]; inhibitor 25 μM): 49 (5) | Inhibition of raloxifene glucuronidation, UGT1A9, first line per inhibitor (G1) ([1]; inhibitor 50 μM): 31 (2) | activity at 15 min, 2 μM ([1]; formation of glucuronide G1, % of control metabolism, raloxifene G1, UGT1A9, inhibitor 2 μM): 90% | activity at 15 min, 5 µM ([1]; formation of glucuronide G1, % of control metabolism, raloxifene G1, UGT1A9, inhibitor 5 μM): 86% | activity at 15 min, 10 µM ([1]; formation of glucuronide G1, % of control metabolism, raloxifene G1, UGT1A9, inhibitor 10 μM): 78% | activity at 15 min, 25 µM ([1]; formation of glucuronide G1, % of control metabolism, raloxifene G1, UGT1A9, inhibitor 25 μM): 49% | activity at 15 min, 50 µM ([1]; formation of glucuronide G1, % of control metabolism, raloxifene G1, UGT1A9, inhibitor 50 μM): 31% | activity at 15 min, 2 μM ([1]; formation of glucuronide G2, % of control metabolism, raloxifene G2, UGT1A9, inhibitor 2 μM): 175% | activity at 15 min, 5 µM ([1]; formation of glucuronide G2, % of control metabolism, raloxifene G2, UGT1A9, inhibitor 5 μM): 260% | activity at 15 min, 10 µM ([1]; formation of glucuronide G2, % of control metabolism, raloxifene G2, UGT1A9, inhibitor 10 μM): 290% | activity at 15 min, 25 µM ([1]; formation of glucuronide G2, % of control metabolism, raloxifene G2, UGT1A9, inhibitor 25 μM): 309% | activity at 15 min, 50 µM ([1]; formation of glucuronide G2, % of control metabolism, raloxifene G2, UGT1A9, inhibitor 50 μM): 245% | Inhibition of raloxifene glucuronidation, UGT1A9, second line per inhibitor (G2) ([1]; inhibitor 2 μM): 175 (0) | Inhibition of raloxifene glucuronidation, UGT1A9, second line per inhibitor (G2) ([1]; inhibitor 5 μM): 260 (3) | Inhibition of raloxifene glucuronidation, UGT1A9, second line per inhibitor (G2) ([1]; inhibitor 10 μM): 290 (9) | Inhibition of raloxifene glucuronidation, UGT1A9, second line per inhibitor (G2) ([1]; inhibitor 50 μM): 245 (3) | percentage of control metabolism, 7-HFC glucuronidation ([2]; inhibitor 25 μM): 57 (1) % | % of control metabolism (SD, n = 3), 7-HFC glucuronidation ([2]; inhibitor 25 μM): 57 (1) % | percentage of control metabolism, 7-HFC glucuronidation ([2]; inhibitor 50 μM): 34 (2) % | % of control metabolism (SD, n = 3), 7-HFC glucuronidation ([2]; inhibitor 50 μM): 34 (2) % | percentage of control metabolism, 7-HFC glucuronidation ([2]; inhibitor 100 μM): 11 (1) % | % of control metabolism (SD, n = 3), 7-HFC glucuronidation ([2]; inhibitor 100 μM): 11 (1) % | percentage of control metabolism, 7-HFC glucuronidation ([2]; inhibitor 200 μM): 1 (0) % | % of control metabolism (SD, n = 3), 7-HFC glucuronidation ([2]; inhibitor 200 μM): 1 (0) % | percentage of control metabolism, 7-HFC glucuronidation ([2]; inhibitor 500 μM): 0.1 (0) % | % of control metabolism (SD, n = 3), 7-HFC glucuronidation ([2]; inhibitor 500 μM): 0.1 (0) % | % of control metabolism (SD, n = 3), raloxifene glucuronide G1 ([3]; inhibitor 2 μM): 94 (6) % | % of control metabolism (SD, n = 3), raloxifene glucuronide G1 ([3]; inhibitor 5 μM): 83 (1) % | % of control metabolism (SD, n = 3), raloxifene glucuronide G1 ([3]; inhibitor 10 μM): 58 (3) % | % of control metabolism (SD, n = 3), raloxifene glucuronide G1 ([3]; inhibitor 25 μM): 36 (2) % | % of control metabolism (SD, n = 3), raloxifene glucuronide G1 ([3]; inhibitor 50 μM): 14 (1) % | % of control metabolism (SD, n = 3), raloxifene glucuronide G1 ([3]; inhibitor 100 μM): 8 (0) % | % of control metabolism (SD, n = 3), raloxifene glucuronide G1 ([3]; inhibitor 500 μM): 0 (0) %
